Data from PubChem BioAssay (NCI).
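Tested at 5 concentrations; 48 h exposure; 96-well plates; endpoints linearly interpolated, else capped at highest concentration. GI50 is the concentration that inhibits growth by half. TGI is the concentration that stops growth completely.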

Assays:
Experiment in all cases: NCI tumour cell line growth inhibition, 48 h
786-0 renal = system: 786-0 renal
A498 renal = system: A498 renal
A549 NSCLC = system: A549 NSCLC
ACHN renal = system: ACHN renal
BT-549 breast = system: BT-549 breast
CAKI-1 renal = system: CAKI-1 renal
CCRF-CEM leukemia = system: CCRF-CEM leukemia
COLO 205 colon = system: COLO 205 colon
DU-145 prostate = system: DU-145 prostate
EKVX NSCLC = system: EKVX NSCLC
HCC-2998 colon = system: HCC-2998 colon
HCT-116 colon = system: HCT-116 colon
HCT-15 colon = system: HCT-15 colon
HL-60(TB) leukemia = system: HL-60(TB) leukemia
HOP-62 NSCLC = system: HOP-62 NSCLC
HOP-92 NSCLC = system: HOP-92 NSCLC
HS 578T breast = system: HS 578T breast
HT29 colon = system: HT29 colon
IGROV1 ovarian = system: IGROV1 ovarian
K-562 leukemia = system: K-562 leukemia
KM12 colon = system: KM12 colon
LOX IMVI melanoma = system: LOX IMVI melanoma
M14 melanoma = system: M14 melanoma
MCF7 breast = system: MCF7 breast
MDA-MB-231 breast = system: MDA-MB-231 breast
MDA-MB-435 = system: MDA-MB-435
MDA-MB-468 breast = system: MDA-MB-468 breast
MOLT-4 leukemia = system: MOLT-4 leukemia
NCI-H226 lung = system: NCI-H226 lung

Which results are given for `COc1sc(/C=N/NC(=O)c2[nH]c3ccc(Br)cc3c2-c2ccccc2)cc1Br`?
GI50 (786-0 renal): 2840 nM; TGI (786-0 renal): > 100 µM; GI50 (A498 renal): 5.44 µM; TGI (A498 renal): 39.4 µM; GI50 (A549 NSCLC): 3.35 µM; TGI (A549 NSCLC): > 100 µM; GI50 (ACHN renal): 3.27 µM; TGI (ACHN renal): > 100 µM; GI50 (BT-549 breast): 3.3 µM; TGI (BT-549 breast): 8.1 µM; GI50 (CAKI-1 renal): 892 nM; TGI (CAKI-1 renal): > 100 µM; GI50 (CCRF-CEM leukemia): 2110 nM; TGI (CCRF-CEM leukemia): > 100 µM; GI50 (COLO 205 colon): 223 nM; TGI (COLO 205 colon): 516 nM; GI50 (DU-145 prostate): 3.36 µM; TGI (DU-145 prostate): > 100 µM; GI50 (EKVX NSCLC): 5.7 µM; TGI (EKVX NSCLC): > 100 µM; GI50 (HCC-2998 colon): 3.74 µM; TGI (HCC-2998 colon): > 100 µM; GI50 (HCT-116 colon): 1250 nM; TGI (HCT-116 colon): > 100 µM; GI50 (HCT-15 colon): 3.27 µM; TGI (HCT-15 colon): > 100 µM; GI50 (HL-60(TB) leukemia): 1620 nM; TGI (HL-60(TB) leukemia): 5.53 µM; GI50 (HOP-62 NSCLC): 353 nM; TGI (HOP-62 NSCLC): 37.5 µM; GI50 (HOP-92 NSCLC): 26.5 µM; TGI (HOP-92 NSCLC): > 100 µM; GI50 (HS 578T breast): 1920 nM; TGI (HS 578T breast): > 100 µM; GI50 (HT29 colon): 1160 nM; TGI (HT29 colon): > 100 µM; GI50 (IGROV1 ovarian): 3.5 µM; TGI (IGROV1 ovarian): > 100 µM; GI50 (K-562 leukemia): 508 nM; TGI (K-562 leukemia): > 100 µM; GI50 (KM12 colon): 3.03 µM; TGI (KM12 colon): > 100 µM; GI50 (LOX IMVI melanoma): 2930 nM; TGI (LOX IMVI melanoma): 35.8 µM; GI50 (M14 melanoma): 2250 nM; TGI (M14 melanoma): > 100 µM; GI50 (MCF7 breast): 1540 nM; TGI (MCF7 breast): > 100 µM; GI50 (MDA-MB-231 breast): 3.21 µM; TGI (MDA-MB-231 breast): > 100 µM; GI50 (MDA-MB-435): 324 nM; TGI (MDA-MB-435): 1800 nM; GI50 (MDA-MB-468 breast): 2180 nM; TGI (MDA-MB-468 breast): 6.88 µM; GI50 (MOLT-4 leukemia): 3.16 µM; TGI (MOLT-4 leukemia): 35.6 µM; GI50 (NCI-H226 lung): 2870 nM; TGI (NCI-H226 lung): 68.9 µM
